Laboratory results reported in patent US20180057565A1, “STABILIZED POLYPEPTIDE INSULIN RECEPTOR MODULATORS” (President and Fellows of Harvard College, priority 2012, published 2018).
Bridge positions count the residues as written; N and C are the ends. Square brackets hold non-standard residues; d marks the D form. Peptide text beside a SMILES is read from it. R8 = C=CCCCCCC[C@@](C)(N)C(=O)O; S5 = C=CCCC[C@](C)(N)C(=O)O

Assays:
IRβ Tyr1150/1151 = target: T1, IRβ Tyr1150/1151 (Homo sapiens, UniProt P06213); test: Immunoblotting of IR auto-phosphorylation in CHO-IR cells; assay type: cell-based; conditions: 10 μM peptides in the presence of 50 nM insulin
T1 construct: expressed in transfected cells; host or cells: CHO-IR (CHO cells stably expressing IR, from the Morris White lab)
Description: To perform this type of direct assay, a CHO-IR cell line that stably expresses IR (provided by Morris White lab) was treated with SIRB peptides to detect auto-phosphorylation of IRβ Tyr1150/1151 (Cell signaling) by western blot.
CHO-IR cells were seeded in 24-well plates and grown in Ham's F-12, 10% FBS medium to >80% confluent (in ˜48 hours). The cells are starved in Ham's F-12 medium without FBS for two hours prior to experiment.
For agonistic studies, cells were incubated in fresh Ham's F-12 without FBS (negative control and baseline for normalization) or the same medium with 50 nM insulin (positive control and 100% activity for normalization). Experimental wells were incubated in the same medium containing various concentrations of peptide (typically 1 uM, 10 uM, and 100 uM). All cells were incubated at 37° C. for 15 min or 30 min.
For antagonistic studies, the experiment could be done with or without pre-treatment with peptides. In the case without, cells were incubated in fresh Ham's F-12 without FBS (negative control and baseline for normalization) or the same medium with 50 nM insulin (positive control and 100% activity for normalization).
Experimental wells were incubated in the same medium containing various concentrations of peptide (typically 1 uM, 10 uM, and 100 uM) AND 50 nM insulin. All cells were incubated at 37 C. for 15 min. […]

phosphor-Akt S473 = test: Dose-response ELISA of phospho-Akt S473 in CHO-IR cell lysates; assay type: cell-based; conditions: 50 nM insulin
Description: FIG. 6 depicts the dose-response of antagonist SIRB-B5. CHO-IR cells were treated with 50 nM insulin and increasing concentrations of SIRB-B5. ELISA assays of phosphor-IR Y1150/1151 and phosphor-Akt S473 were performed with cell lysates.
For further verification of biological activity, the SIRB peptide library was screened again using IR auto-phosphorylation as an indicator. […] A possible explanation for the differential plateau values is that phosphorylation of Akt1 is controlled by many other pathways as well and thus difficult to abolish completely.

L1-CR-L2 = target: T2, L1-CR-L2 (Homo sapiens, UniProt P06213); test: Affinity pull-down of IR construct by biotinylated peptide on streptavidin beads; conditions: 1% BSA in binding buffer, Western blot of His5 tag
T2 construct: made in house; host or cells: HEK293 (stably transfected; protein used from expression medium)
From the text: (§1) FIGS. 8A-8C depict the affinity pull-down of IR by SIRB-B5. 1% BSA added to binding buffer. FIG. 8A depicts the pull-down assay: Biotinylated SIRB-B5 could be immobilized on streptavidincoated beads and pull down IR from expression medium. Precipitated protein could be visualized by Western blot of His5 tag. FIG. 8B depicts L1-CR-L2 pulled down by SIRB-B5. FIG. 8C depicts mIR-Fn1-Ex10 pulled down by SIRB-B5 and competition by insulin.

mIR-Fn1-Ex10 = test: as above; conditions: 1% BSA in binding buffer, competition by insulin
From the text: as §1

IGF-1R = target: T3, IGF-1R (Homo sapiens, UniProt P08069); test: IGF-1R phosphorylation Western blot after immunoprecipitation, HepG2 cells with IGF1; assay type: cell-based; conditions: in the presence of IGF1
T3 construct: host or cells: HepG2
Description: FIG. 11 depicts SIRB-B5 antagonism on IGF-1R. HepG2 cells were treated with SIRB-B5 in the presence of IGF1. IGF-1R was immunoprecipitated to be distinguished from IR on a Phospho-IR/IGF-1R Western blot.

[1] = test system: phosphorylation of Akt1 at Ser473; test: Phospho-Akt1 (Ser473) sandwich ELISA in HepG2 cells, antagonism and agonism screening; assay type: cell-based, human
Description: We note that although S371 has a high affinity to IR, it can barely induce downstream effects such as lipogenesis in rat adipocytes, which may reconcile with the result of no increase in downstream Akt phosphorylation. The effect of the peptides on insulin signaling was determined using a sandwich ELISA assay kit (Cell Signaling) designed to measure phosphorylation of Akt Ser473, a downstream target in the insulin signaling pathway. For each compound, cells were treated both in the presence and absence of insulin to reveal either antagonism or agonism, respectively, of insulin signaling.
Preparation: insulin stock solution at 50 μM (0.3 mg/ml or 30 mg/100 ml). To make stock: dissolved 10 mg in 1 ml 0.01 N HCl, heat at 37° C. to dissolve, then added to 32 ml, PBS, sterile filtered and stored at −20 C. Working stock would stay in good quality for 1 month at 4° C. […]
For the phospho-Akt1 ELISA assay, clarified lysate was first quantified using the standard BCA method, and all samples were adjusted to have the same total protein concentration. […]
The following day, wells were drained and washed four times with 1× Wash Buffer. […] Chemiluminescence was read under RLU mode in the […] SpectraMax Plate Reader at […] within 1-10 minutes of addition of substrate.

IR = IR (Homo sapiens, UniProt P06213); conditions: read-out: affinity to the IR (kD); cited from earlier work
rat adipocytes = conditions: cited from earlier work

T3 sequence (P08069 31-736 limits assumed): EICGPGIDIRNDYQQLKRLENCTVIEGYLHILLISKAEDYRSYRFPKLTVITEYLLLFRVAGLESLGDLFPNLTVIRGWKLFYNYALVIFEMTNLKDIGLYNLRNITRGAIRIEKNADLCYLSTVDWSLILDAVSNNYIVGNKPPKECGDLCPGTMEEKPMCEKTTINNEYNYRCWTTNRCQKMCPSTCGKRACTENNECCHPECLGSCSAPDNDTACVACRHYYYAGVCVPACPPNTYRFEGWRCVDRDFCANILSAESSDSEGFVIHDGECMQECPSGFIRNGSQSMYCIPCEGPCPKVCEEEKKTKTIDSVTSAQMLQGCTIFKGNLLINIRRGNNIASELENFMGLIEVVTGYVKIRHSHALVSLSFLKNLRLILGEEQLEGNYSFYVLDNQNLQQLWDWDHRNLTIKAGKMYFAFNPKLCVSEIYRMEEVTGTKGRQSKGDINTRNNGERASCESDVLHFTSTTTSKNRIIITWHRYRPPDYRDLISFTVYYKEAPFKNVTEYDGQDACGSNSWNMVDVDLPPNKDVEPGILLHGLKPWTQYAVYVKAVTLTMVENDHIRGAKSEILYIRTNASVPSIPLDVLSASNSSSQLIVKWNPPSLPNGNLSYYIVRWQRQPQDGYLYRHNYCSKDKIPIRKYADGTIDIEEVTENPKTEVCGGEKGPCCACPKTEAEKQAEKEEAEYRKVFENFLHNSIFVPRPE
T3 sequence (P08069 741-1367 partner limits assumed): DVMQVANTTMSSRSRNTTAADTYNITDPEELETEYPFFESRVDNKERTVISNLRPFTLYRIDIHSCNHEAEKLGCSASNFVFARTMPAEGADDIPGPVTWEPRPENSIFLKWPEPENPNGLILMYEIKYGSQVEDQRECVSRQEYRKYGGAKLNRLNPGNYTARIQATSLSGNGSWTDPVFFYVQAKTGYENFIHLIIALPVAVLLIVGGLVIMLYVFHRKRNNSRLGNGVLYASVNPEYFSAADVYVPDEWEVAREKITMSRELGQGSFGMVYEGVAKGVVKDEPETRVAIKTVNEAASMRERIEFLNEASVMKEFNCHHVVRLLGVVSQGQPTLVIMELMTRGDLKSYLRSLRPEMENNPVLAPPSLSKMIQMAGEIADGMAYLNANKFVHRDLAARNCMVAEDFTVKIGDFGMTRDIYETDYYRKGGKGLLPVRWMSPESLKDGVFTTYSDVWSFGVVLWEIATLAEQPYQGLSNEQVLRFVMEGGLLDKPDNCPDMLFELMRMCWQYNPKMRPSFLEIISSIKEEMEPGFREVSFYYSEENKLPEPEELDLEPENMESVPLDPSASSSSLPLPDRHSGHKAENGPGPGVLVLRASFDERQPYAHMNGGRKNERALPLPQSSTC

Row | Molecule | effect on insulin-induced auto-phosphorylation of IR (Phospho-IR western blot) (IRβ Tyr1150/1151) | IC50 (phosphor-Akt S473; CHO-IR cells, read-out: IC50, inhibition of insulin-induced phosphorylation of Akt) | Akt phosphorylation, % of control (phosphor-Akt S473; maximal dose of 100 μM peptide) | pull-down of L1-CR-L2 (L1-CR-L2) | pull-down of mIR-Fn1-Ex10 (mIR-Fn1-Ex10) | antagonism on IGF-1R (IGF-1R) | reduction of the insulin-induced Akt-S473 phosphorylation signal ([1]; 10 μM peptide in the presence of 50 nM insulin) | agonistic effect on Akt phosphorylation, peptide alone ([1]; absence of insulin) | Kd (IR) | induction of lipogenesis (rat adipocytes)
1 | CC(C)C[C@H](NC(=O)[C@H](CCC(N)=O)NC(=O)[C@H](CCCNC(=N)N)NC(=O)[C@]1(C)CCCC=CCCCCCC[C@@](C)(NC(=O)[C@H](CC(=O)O)NC(=O)[C@H](CC(C)C)NC(=O)[C@H](CO)NC(=O)CN)C(=O)N[C@@H](CO)C(=O)N[C@@H](Cc2ccccc2)C(=O)N[C@@H](Cc2ccc(O)cc2)C(=O)N[C@@H](CC(=O)O)C(=O)N[C@@H](Cc2c[nH]c3ccccc23)C(=O)N[C@@H](Cc2ccccc2)C(=O)N1)C(=O)NCC(N)=O [SIRB-B5] (H-GSLD[R8]SFYDWF[S5]RQLG-NH2; staple 5-12; C-terminus assumed) | significant reduction | 1800 nM | 16% | pulled down | pulled down | antagonism | – | – | – | –
2 | S371: previously reported insulin-mimetic site 1 peptide of 16 residues from phage display; lead for stapling (GSLDESFYDWFERQLG) | – | – | – | – | – | – | 20% | no trace of any increase in phosphorylation | 40 nM | barely induce
